Assay: solvent given as SMILES

CC12C=CC(C1)C(C)(C)C2 (stereo not given)
Conditions | solvation free energy, 298 K [kcal/mol]
in O | 0.64

O=Cc1cccnc1
Conditions | solvation free energy, 298 K [kcal/mol]
in O | -7.1

COC(=O)CC#N
Conditions | solvation free energy, 298 K [kcal/mol]
in O | -6.72

O=C1CCCCC1
Conditions | solvation free energy, 298 K [kcal/mol]
in CCCCCC | -4.98
in CCCCCCC | -5.18
in CCCCCCCCCCCCCCCC | -4.97
in ClC(Cl)(Cl)Cl | -6.23
in ClCCCl | -6.78
in O | -4.91

CN(C)c1ccc(C(=O)O)cc1
Conditions | solvation free energy, 298 K [kcal/mol]
in CN(C)C=O | -13.8
in O | -9.28

O=C(O)CCCCCC(=O)O
Conditions | solvation free energy, 298 K [kcal/mol]
in CCO | -14.2
in CCOCC | -12.8

CCCC=CC=O
Conditions | solvation free energy, 298 K [kcal/mol]
in O | -3.68

OCC(F)(F)F
Conditions | solvation free energy, 298 K [kcal/mol]
in C1COCCO1 | -5.63
in CC(=O)N(C)C | -6.81
in CN(C)C=O | -6.93
in O | -4.31

Cc1ccccc1Cl
Conditions | solvation free energy, 298 K [kcal/mol]
in O | -1.14

CCC(C)CCCC(C)CCCC(C)CCCC(C)C (stereo not given)
Conditions | solvation free energy, 298 K [kcal/mol]
in O | 4.83

CCC(O)CC
Conditions | solvation free energy, 298 K [kcal/mol]
in O | -4.35

COC
Conditions | solvation free energy, 298 K [kcal/mol]
in Brc1ccccc1 | -2.1
in CC(C)(C)O | -2.25
in CC(C)CCO | -1.99
in CC(C)CO | -2.1
in CC(C)O | -2.13
in CCC(C)(C)O | -2.22
in CCC(C)CO | -2.05
in CCC(C)O | -2.1
in CCC(O)CC | -2.18
in CCCC(C)O | -2.05
in CCCCCC | -1.79
in CCCCCCCCO | -1.87
in CCCCCO | -1.98
in CCCCO | -2.05
in CCCO | -2.1
in CN(C)C=O | -2.13
in CO | -2.31
in COC(C)=O | -2.33
in Cc1ccc(C)cc1 | -2.03
in Cc1cccc(C)c1 | -2.05
in Cc1ccccc1C | -2.04
in Clc1ccccc1 | -2.18
in Ic1ccccc1 | -2.03
in O | -1.91

CCCCCN(C)N=O
Conditions | solvation free energy, 298 K [kcal/mol]
in O | -5.05

Clc1ccc(C(c2ccc(Cl)cc2)C(Cl)Cl)cc1
Conditions | solvation free energy, 298 K [kcal/mol]
in CCCCCCCCO | -13.7
in O | -4.88

c1ccc2c(c1)Cc1ccccc1O2
Conditions | solvation free energy, 298 K [kcal/mol]
in C1CCOC1 | -10.9
in C1COCCO1 | -10.8
in CC(C)(C)O | -9.25
in CC(C)CC(C)(C)C | -9.39
in CC(C)CC(C)O | -9.34
in CC(C)CCO | -9.39
in CC(C)CO | -9.24
in CC(C)O | -9.22
in CC(C)OC(C)C | -9.95
in CCC(C)(C)O | -9.49
in CCC(C)O | -9.33
in CCCC(C)CO | -9.42
in CCCC(C)O | -9.43
in CCCCCC | -9.63
in CCCCCCC | -9.67
in CCCCCCCC | -9.68
in CCCCCCCCCC | -9.67
in CCCCCCCCCCO | -9.67
in CCCCCCCCO | -9.67
in CCCCCCCO | -9.66
in CCCCCCO | -9.63
in CCCCCO | -9.57
in CCCCO | -9.53
in CCCCOCCCC | -10.1
in CCCO | -9.41
in CCO | -9.19
in CCOCC | -10.5
in CO | -9.2
in COC(C)(C)C | -10.3
in ClC(Cl)(Cl)Cl | -10.8
in ClCCCl | -10.8

Cc1ccc(C(C)C)c(O)c1
Conditions | solvation free energy, 298 K [kcal/mol]
in CCCO | -10.2
in CCO | -10.3
in CO | -10.3
in O | -5.81

COC(C)=O
Conditions | solvation free energy, 298 K [kcal/mol]
in C=CCCCCCCC=C | -3.23
in CC(=O)N(C)C | -3.82
in CC(C)=O | -4.12
in CC(C)CCCC(C)CCCC(C)CCCCC(C)CCCC(C)CCCC(C)C | -2.53
in CC(C)O | -3.36
in CCC1CO1 | -4.01
in CCCCC(CC)COC(=O)CCCCC(=O)OCC(CC)CCCC | -3.19
in CCCCCC | -2.93
in CCCCCCC | -2.78
in CCCCCCCC | -2.88
in CCCCCCCCC=CCCCCCCCC(=O)OCC(COC(=O)CCCCCCCC=CCCCCCCCC)OC(=O)CCCCCCCC=CCCCCCCCC | -3.22
in CCCCCCCCCC | -2.8
in CCCCCCCCCCCCCCCC | -2.63
in CCCCCCCCO | -3.15
in CCCCN(C=O)CCCC | -3.48
in CCOC(=O)c1ccccc1C(=O)OCC | -3.48
in CCOCCO | -3.69
in CCOP(=O)(OCC)OCC | -3.75
in CN1CCCC1=O | -3.72
in CN1CCCCC1=O | -3.72
in CN1CCN(C)C1=O | -3.55
in CN(C)C=O | -3.9
in CNC(C)=O | -3.62
in CO | -3.96
in COP(=O)(OC)OC | -3.94
in CS(C)=O | -3.53
in NC=O | -3.27
in O | -3.14
in O=CN1CCOCC1 | -3.58
in OCCOCCO | -3.32
in [2H]O[2H] | -3.17
in c1ccc2ncccc2c1 | -3.51

Source: the CombiSolv-Exp solvation set (Vermeire and Green 2021)
